Assay results reported in ChEMBL document CHEMBL1154909, “Dammarane-type glycosides from Gynostemma pentaphyllum and their effects on IL-4-induced eotaxin expression in human bronchial epithelial cells” (J Nat Prod, 2010).

Legend:
BEAS-2B = experiment: Antiinflammatory activity in human BEAS2B cells assessed as inhibition of IL4-induced eotaxin production after 48 hrs by ELISA pretreated for 2 hrs before IL4 challenge; format: functional, cell-based
[1] = Antiinflammatory activity in human BEAS2B cells assessed as inhibition of IL4 and TNF-alpha-induced eotaxin production at 10 uM after 48 hrs by ELISA pretreated for 2 hrs before IL4 and TNFalpha challenge; format: functional, BEAS-2B
[2] = Antiinflammatory activity in human BEAS2B cells assessed as inhibition of IL4-induced eotaxin production at 10 uM after 48 hrs by ELISA pretreated for 2 hrs before IL4 challenge (reference value: 58.5+/-4.7 ng/mL); format: functional, BEAS-2B
[3] = Cytotoxicity against human BEAS2B cells at 10 uM after 48 hrs by MTT assay; format: cell-based; conditions: beas-2b
[4] = Antiinflammatory activity in human BEAS2B cells assessed as inhibition of IL4 and TNF-alpha-induced eotaxin production after 48 hrs by ELISA pretreated for 2 hrs before IL4 and TNFalpha challenge (Rvb= 450+/-38.4 pg/mL); format: functional, BEAS-2B
[5] = Cytotoxicity against human BEAS2B cells at 10 uM after 48 hrs by MTT assay in the presence of IL4; format: cell-based; conditions: beas-2b

Which Activity (BEAS-2B) does the source give for CC(=O)OC[C@H]1O[C@@H](O[C@H]2[C@H](O[C@@](C)(CCC=C(C)C)[C@H]3CC[C@]4(C)[C@@H]3[C@H](O)C[C@@H]3[C@@]5(C)C[C@@H](O)[C@H](O[C@@H]6O[C@H](CO)[C@@H](O)[C@H](O)[C@H]6O)C(C)(C)[C@@H]5CC[C@]34C)O[C@H](CO)[C@@H](O)[C@@H]2O)[C@H](O)[C@@H](O)[C@@H]1O here?
Its Activity is “Dose-dependent effect”.

What about the Activity [1] of the same compound?
The Activity was 157.2 pg/mL.

For COc1ccc2ccc(=O)oc2c1CC=C(C)C [OSTHOLE], which Activity [2] is on record?
The Activity was 16.8 pg/mL.

What about the Activity [1] of the same compound?
The Activity was 187.3 pg/mL.

Which results are given for CC(C)=CCC[C@](C)(O[C@@H]1O[C@H](CO[C@@H]2OC[C@@H](O)[C@H](O)[C@H]2O)[C@@H](O)[C@H](O)[C@H]1O)[C@H]1CC[C@]2(C)[C@@H]1[C@H](O)C[C@@H]1[C@@]3(C)C[C@@H](O)[C@H](O[C@@H]4O[C@H](CO)[C@@H](O[C@@H]5O[C@H](CO)[C@@H](O)[C@H](O)[C@H]5O)[C@H](O)[C@H]4O)C(C)(C)[C@@H]3CC[C@]12C?
Activity (BEAS-2B): Dose-dependent effect; Activity [3]: Non-toxic; Activity [4]: 197.2 pg/mL; Activity [5]: Non-toxic
